ChEMBL document CHEMBL1201862, “PubChem BioAssay data set” (2004)
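Values below derive from 48-hour exposures of cells grown in 96-well plates, with endpoints linearly interpolated between the two concentrations bracketing the appropriate inhibition level. GI50 = concentration required for 50% inhibition of growth.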 Calls of active or inactive are those of the source. No stated cut-off is given here; in the data, active = GI50 up to about 1.1 µM and inactive = higher.

Assays:
Assay in all cases: NCI anticancer screen, dose series, 48 h
A498 = system: A498
A549 = system: A549
CCRF-CEM = system: CCRF-CEM
EKVX = system: EKVX
HCC 2998 = system: HCC 2998
HCT-116 = system: HCT-116
HT-29 = system: HT-29
Hs-578T = system: Hs-578T
M14 = system: M14
MDA-N = system: MDA-N
NCI-H226 = system: NCI-H226
NCI-H23 = system: NCI-H23
OVCAR-3 = system: OVCAR-3
OVCAR-8 = system: OVCAR-8
RPMI-8226 = system: RPMI-8226
SF-295 = system: SF-295
SK-MEL-2 = system: SK-MEL-2
SR = system: SR
SNB-75 = system: SNB-75
T47D = system: T47D

| Compound | GI50 (A498) | GI50 (A549) | GI50 (CCRF-CEM) | GI50 (EKVX) | GI50 (HCC 2998) | GI50 (HCT-116) | GI50 (HT-29) | GI50 (Hs-578T) | GI50 (M14) | GI50 (MDA-N) | GI50 (NCI-H226) | GI50 (NCI-H23) | GI50 (OVCAR-3) | GI50 (OVCAR-8) | GI50 (RPMI-8226) | GI50 (SF-295) | GI50 (SK-MEL-2) | GI50 (SR) | GI50 (SNB-75) | GI50 (T47D) |
| --- | --- | --- | --- | --- | --- | --- | --- | --- | --- | --- | --- | --- | --- | --- | --- | --- | --- | --- | --- | --- |
| COC(=O)CC1(O)C(/C=C/c2ccccc2)C(C(=O)OC)C(=O)C(C(=O)OC)C1C(=O)OC (stereo not drawn) | > 100 µM (inactive) | > 100 µM (inactive) | 48.3 µM (inactive) | > 100 µM (inactive) | > 100 µM (inactive) | 54 µM (inactive) | > 100 µM (inactive) | > 100 µM (inactive) | > 100 µM (inactive) | 44 µM (inactive) | > 100 µM (inactive) | > 100 µM (inactive) | > 100 µM (inactive) | > 100 µM (inactive) | > 100 µM (inactive) | 18.5 µM (inactive) | > 100 µM (inactive) | > 100 µM (inactive) |  |  |
| c1ccc2c(c1)OC(N1CCCC1)c1cnc(N3CCOCC3)nc1-2 (stereo not drawn) | 18.7 µM (inactive) | 57.7 µM (inactive) | 31.9 µM (inactive) | 21.6 µM (inactive) |  | > 100 µM (inactive) | 53.6 µM (inactive) | 51.1 µM (inactive) | 57.8 µM (inactive) |  | 30.6 µM (inactive) | 15.8 µM (inactive) | 34.5 µM (inactive) | > 100 µM (inactive) | 25.7 µM (inactive) | 30.4 µM (inactive) |  | 38.5 µM (inactive) | 17.1 µM (inactive) | 3.54 µM (inactive) |
| COC(=O)C1=C(C(=O)OC)SC(=C2S[C@@H]3[C@@H]4C[C@H]([C@@H]3S2)[C@H]2C(=O)OC(=O)[C@@H]42)S1 | > 100 µM (inactive) | > 100 µM (inactive) | > 100 µM (inactive) | > 100 µM (inactive) | > 100 µM (inactive) | > 100 µM (inactive) | > 100 µM (inactive) | > 100 µM (inactive) | > 100 µM (inactive) |  | > 100 µM (inactive) | > 100 µM (inactive) | > 100 µM (inactive) | > 100 µM (inactive) | > 100 µM (inactive) | > 100 µM (inactive) | > 100 µM (inactive) |  |  | > 100 µM (inactive) |
| CC(C)(C)c1cc(/C=C2/NC(=O)NC2=O)cc(C(C)(C)C)c1O | 14 µM (inactive) |  | 11.9 µM (inactive) | 10.9 µM (inactive) |  | 14.1 µM (inactive) | 11.7 µM (inactive) | 15.2 µM (inactive) |  |  | 14.8 µM (inactive) | 15 µM (inactive) | 14.2 µM (inactive) | 16.3 µM (inactive) | 11.4 µM (inactive) | 14.8 µM (inactive) | 13.8 µM (inactive) | 12.8 µM (inactive) | 12.3 µM (inactive) | 2.91 µM (inactive) |
| CN1CCN(C(=O)CCC(=O)Nc2cc3c(c4ccccc24)-c2ccc4ccccc4c2C3)CC1 | 13.8 µM (inactive) | 1.96 µM (inactive) | 2.08 µM (inactive) | 1.67 µM (inactive) | 1.37 µM (inactive) | 1.55 µM (inactive) | 1.72 µM (inactive) | 2.63 µM (inactive) | 1.45 µM (inactive) |  | 1.76 µM (inactive) | 1.97 µM (inactive) | 1.63 µM (inactive) | 2.18 µM (inactive) | 1.96 µM (inactive) | 1.71 µM (inactive) | 1.97 µM (inactive) | 1.79 µM (inactive) |  | 1.7 µM (inactive) |
| CC(C)(C)OC(=O)NCCNC(=O)OCc1ccccc1 |  | > 100 µM (inactive) |  | > 100 µM (inactive) | > 100 µM (inactive) |  | > 100 µM (inactive) | > 100 µM (inactive) | > 100 µM (inactive) | > 100 µM (inactive) | > 100 µM (inactive) | > 100 µM (inactive) | > 100 µM (inactive) | > 100 µM (inactive) | > 100 µM (inactive) | > 100 µM (inactive) | > 100 µM (inactive) | > 100 µM (inactive) | > 100 µM (inactive) |  |
| N#Cc1c(-c2ccc(Cl)cc2)c(C#N)c(=O)n(NS(=O)(=O)c2ccccc2)c1O | 24.9 µM (inactive) | 28.8 µM (inactive) | 25.2 µM (inactive) | 28.1 µM (inactive) | 13.8 µM (inactive) | 16.2 µM (inactive) | 34.8 µM (inactive) | 19.7 µM (inactive) | 29.6 µM (inactive) | 19.8 µM (inactive) | 28.2 µM (inactive) |  |  | 28.8 µM (inactive) | 6.44 µM (inactive) | 30.1 µM (inactive) | 19.6 µM (inactive) |  | 34 µM (inactive) |  |
| Fc1ccccc1CN1COc2c(cc(Cl)c3cccnc23)C1 |  | 2.16 µM (inactive) |  | 0.378 µM (active) |  | 1.26 µM (inactive) | 7.85 µM (inactive) | 3.15 µM (inactive) | 2.05 µM (inactive) |  | 0.624 µM (active) | 1.6 µM (inactive) | 3.75 µM (inactive) | 1.53 µM (inactive) | < 0.01 µM (active) | 0.726 µM (active) | 3.93 µM (inactive) | 0.389 µM (active) | 1.56 µM (inactive) | 3.6 µM (inactive) |
| CS/C(=N\C#N)S/C=C/C(=O)c1ccc(Cl)cc1 |  | > 100 µM (inactive) | 78.5 µM (inactive) | 66.5 µM (inactive) | 42.4 µM (inactive) | 18.5 µM (inactive) | 21.8 µM (inactive) | 32.7 µM (inactive) | 22.3 µM (inactive) |  |  | 24.9 µM (inactive) | 15.2 µM (inactive) | 20.2 µM (inactive) |  | 29.1 µM (inactive) | 17.6 µM (inactive) | 3.13 µM (inactive) | 43 µM (inactive) | 25 µM (inactive) |
| O=c1/c(=C\c2ccccc2)sc2n1C(c1ccccc1)C1(O)CCCCC1N=2 (stereo not drawn) | 36.8 µM (inactive) | 78.3 µM (inactive) | 91 µM (inactive) |  | 67.1 µM (inactive) | 51.3 µM (inactive) | > 100 µM (inactive) |  | > 100 µM (inactive) | > 100 µM (inactive) | > 100 µM (inactive) | 56.9 µM (inactive) | > 100 µM (inactive) | > 100 µM (inactive) | 59.8 µM (inactive) |  | 62.1 µM (inactive) | 62.5 µM (inactive) | > 100 µM (inactive) | 51.5 µM (inactive) |
| Cc1ccc(OCC2OC(n3cnc4c(Br)nc(Br)nc43)CC2Oc2ccc(C)cc2)cc1 (stereo not drawn) | 10.5 µM (inactive) | 12.6 µM (inactive) | 2.7 µM (inactive) | 2.05 µM (inactive) | 2.6 µM (inactive) | 1.89 µM (inactive) | 2.9 µM (inactive) |  | 2.59 µM (inactive) | 2.94 µM (inactive) | 14.6 µM (inactive) | 4.55 µM (inactive) | 5.6 µM (inactive) | 3.69 µM (inactive) | 9.29 µM (inactive) | 8.49 µM (inactive) | 2.75 µM (inactive) | 1.96 µM (inactive) | 3.09 µM (inactive) | 10.8 µM (inactive) |
| NCc1ccc(C(=O)O)cc1 [AMINOMETHYLBENZOIC ACID] | > 100 µM (inactive) | > 100 µM (inactive) |  | > 100 µM (inactive) | > 100 µM (inactive) | > 100 µM (inactive) | > 100 µM (inactive) |  | > 100 µM (inactive) | > 100 µM (inactive) | > 100 µM (inactive) | > 100 µM (inactive) | > 100 µM (inactive) | > 100 µM (inactive) |  | > 100 µM (inactive) |  | > 100 µM (inactive) |  | > 100 µM (inactive) |
| CNC(C)Cc1ccccc1O (stereo not drawn) | > 100 µM (inactive) | > 100 µM (inactive) | > 100 µM (inactive) | > 100 µM (inactive) | > 100 µM (inactive) | > 100 µM (inactive) | > 100 µM (inactive) |  | > 100 µM (inactive) |  | > 100 µM (inactive) | > 100 µM (inactive) | > 100 µM (inactive) | > 100 µM (inactive) | > 100 µM (inactive) | > 100 µM (inactive) | > 100 µM (inactive) | > 100 µM (inactive) | > 100 µM (inactive) |  |
| Cc1ccc(C(=O)C(C)N)cc1 (stereo not drawn) | > 100 µM (inactive) | > 100 µM (inactive) | > 100 µM (inactive) | > 100 µM (inactive) | > 100 µM (inactive) | > 100 µM (inactive) | > 100 µM (inactive) |  | > 100 µM (inactive) |  | > 100 µM (inactive) | > 100 µM (inactive) | > 100 µM (inactive) | > 100 µM (inactive) | > 100 µM (inactive) | > 100 µM (inactive) | > 100 µM (inactive) | > 100 µM (inactive) | > 100 µM (inactive) |  |
| O=C(O)C12C3CCC(C3)C1(C(=O)O)C1CCC2C1 (stereo not drawn) | > 100 µM (inactive) | > 100 µM (inactive) | 32.8 µM (inactive) | > 100 µM (inactive) | > 100 µM (inactive) | 45.3 µM (inactive) | > 100 µM (inactive) |  | > 100 µM (inactive) |  | > 100 µM (inactive) | > 100 µM (inactive) | > 100 µM (inactive) | > 100 µM (inactive) | 23.3 µM (inactive) | > 100 µM (inactive) | > 100 µM (inactive) | 60.3 µM (inactive) | > 100 µM (inactive) |  |
| COC1(OC)CC(CO)(COc2cc(Cl)nc(N)n2)C1 |  | > 100 µM (inactive) | > 100 µM (inactive) | > 100 µM (inactive) | > 100 µM (inactive) | > 100 µM (inactive) | > 100 µM (inactive) | > 100 µM (inactive) |  | > 100 µM (inactive) | > 100 µM (inactive) | > 100 µM (inactive) | > 100 µM (inactive) | > 100 µM (inactive) |  | > 100 µM (inactive) | > 100 µM (inactive) |  | > 100 µM (inactive) | > 100 µM (inactive) |
